Data on four compounds can be found in US5811391A, “Cyclic CS-1 peptidomimetics, compositions and methods of using same” (Cytel Corporation, priority 1995, dated 1998).

The test system of series [1] is porcine peripheral blood lymphocytes / coronary artery endothelial cells and smooth muscle cells. Put plainly: In vitro porcine allograft model: transendothelial lymphocyte migration. The series is classed as cell-based. The following applies: 10 μg/ml in the medium, IL-1β-stimulated SMC; present-tense example. As for the experimental part:
A similar study is carried out in vitro using porcine coronary artery endothelial cells (EC; as are present in the IEL) and smooth muscle cells (SMC; as are present in the medial layer of the artery). The two cell types are cultured using a membrane transwell system, with the SMC on the bottom layer in M-199 medium (Gibco Labs.). The SMC are stimulated with 100 ng/ml of interleukin-1β (IL-1β) for 24 hours prior to the start of the assay. Porcine peripheral blood lymphocytes are separated by Ficoll-Hypaque, radiolabeled and incubated overnight (about 18 hours) on the EC.

In another series the target is VLA-4 (Homo sapiens, UniProt P05556+P13612). Description: In vitro binding assay: 51Cr-labeled Jurkat cells to solid phase-bound CS-1 peptide (SEQ ID NO:5). The series is classed as cell-based. Further details: inflammatory cells that contain the VLA-4 receptor [Jurkat cells; host or cells: Jurkat cells (human T lymphoblastic line). The note with it: for Relative Potency: Table 1, normalized IC50 potency relative to standard peptide SEQ ID NO:6 (=1), Jurkat cells, CS-1. As for the experimental part:
Binding inhibition is measured here as a concentration of peptide that inhibits one-half the binding between a standard number of Jurkat cells and a standard amount of CS-1 peptide bound to the surface of a microtiter plate well. Those concentrations are conveniently expressed as IC50 values, smaller numbers indicating a lower concentration required to inhibit 50 percent binding and therefore greater potency. Further specifics of this assay are provided hereinafter.
Jurkat cells (ATCC TIB 152), a human T lymphoblastic line, labeled with ^51 chromium were used to assay in vitro binding inhibition provided by various peptides discussed herein.
The plates were prepared as follows: The 25-mer CS-1 peptide (SEQ ID NO:5) dissolved at 0.5-1 μg/ml in a buffer of 0.1M NaHCO3 at pH 9.5 that also contained 10 μg/ml of bovine serum albumin (BSA) or a conjugate of the CS-1 peptide linked to ovalbumin (CS-1-OVA) dissolved at 1-2.5 μg/ml in the same buffer was used as the substrate. Each well of the microtiter plates was coated with 50 μl of substrate or buffer alone for controls. The wells were permitted to dry out completely and were then rinsed twice with PBS at pH 7.4. Non-specific binding sites of each well were then blocked using 200 μl per well of RPMI/1 percent BSA for two hours at room temperature. Both solid phase-affixed substrates provided similar results.
Jurkat cells (3-5×10^6 cells) were placed into a 15 ml FALCON™ round-bottom tube with a cap. The tube was centrifuged, and the extra medium was then removed.
Two hundred microliters of a ^51 Cr labeling solution were added to the centrifuged cells and maintained in contact with the cells for 90-120 minutes in a warm room. This procedure typically provides about 50,000-100,000 cpm/well with about 80-100 percent cell viability. Longer contact times provide a greater amount of labeling but lower cell viability.
The labeled cells were washed with (i) complete medium, (ii) 1mM EDTA/PBS and then (iii) RPM1/1 percent BSA free of serum components. The cells were centrifuged after each washing. The cells were finally resuspended in serum-free RPMI/1 percent BSA at a concentration of 1×10^6 viable cells/ml, which provides a concentration that is diluted by one-half in the assay.
Cyclic inhibitor peptides were prepared as stock solutions at 20 mg/ml in DMSO in 1.5 ml cryogenic screwcap vials, and were stored at -70° C. Using FLOW™ round-bottom or V-bottom microtiter plates, the inhibitor peptides were prepared at twice the assay concentration in RPMI/1 percent BSA at 60 μl/well.
Four initial dilutions were typically used.
The ^51 Cr-labeled cells (1×10^6 cells at 60 μl/well) were then admixed with the diluted cyclic peptide solutions. The admixtures were maintained at room temperature (about 22° C.) for 30 minutes.
One hundred microliters of each inhibitor peptide/cell admixture were transferred to the substrate-coated wells. This was done in triplicate for each dilution. The resulting plates were incubated for 30 minutes at 37° C. and then washed gently three times with RPMI/1 percent BSA at 200 μl/well. Binding was observed microscopically, particularly after the second wash.
The bound cells were then lysed by the addition of a 0.5 percent solution of sodium dodecylsulfate in water at 100 μl/well. The resulting solutions were then processed for counting and calculation of IC50 values following usual procedures. Appropriate positive and negative controls were used with each plate so that the results of separate assays could be normalized and compared.
The potency data of Table 1 and Table 2 are so normalized. The absolute IC50 value for the peptide of SEQ ID NO:7 is 0.3 μM.

The test system of a further series is contact hypersensitivity. The note with it: Ferguson et al. 1991; cited from earlier work.
Series [2] is described as follows: Retention of potency in PBS containing 10 percent mouse or human serum. The series is classed as in vitro ADME. The following applies: PBS at 7.2-7.4 containing 10 percent mouse or human serum.
For series [3] the following is noted: Elices et al. 1993; cited from earlier work.
For another series, the target named is T1, VLA-4/sVCAM-1 (Homo sapiens, UniProt P05556+P13612).
T1 construct: host or cells: Jurkat cells carry the VLA-4; The sVCAM-1 partner was made in house in transfected human embryonal kidney 293 cells (ATCC CRL 1573)
T1 sequence (P13612 34-1032): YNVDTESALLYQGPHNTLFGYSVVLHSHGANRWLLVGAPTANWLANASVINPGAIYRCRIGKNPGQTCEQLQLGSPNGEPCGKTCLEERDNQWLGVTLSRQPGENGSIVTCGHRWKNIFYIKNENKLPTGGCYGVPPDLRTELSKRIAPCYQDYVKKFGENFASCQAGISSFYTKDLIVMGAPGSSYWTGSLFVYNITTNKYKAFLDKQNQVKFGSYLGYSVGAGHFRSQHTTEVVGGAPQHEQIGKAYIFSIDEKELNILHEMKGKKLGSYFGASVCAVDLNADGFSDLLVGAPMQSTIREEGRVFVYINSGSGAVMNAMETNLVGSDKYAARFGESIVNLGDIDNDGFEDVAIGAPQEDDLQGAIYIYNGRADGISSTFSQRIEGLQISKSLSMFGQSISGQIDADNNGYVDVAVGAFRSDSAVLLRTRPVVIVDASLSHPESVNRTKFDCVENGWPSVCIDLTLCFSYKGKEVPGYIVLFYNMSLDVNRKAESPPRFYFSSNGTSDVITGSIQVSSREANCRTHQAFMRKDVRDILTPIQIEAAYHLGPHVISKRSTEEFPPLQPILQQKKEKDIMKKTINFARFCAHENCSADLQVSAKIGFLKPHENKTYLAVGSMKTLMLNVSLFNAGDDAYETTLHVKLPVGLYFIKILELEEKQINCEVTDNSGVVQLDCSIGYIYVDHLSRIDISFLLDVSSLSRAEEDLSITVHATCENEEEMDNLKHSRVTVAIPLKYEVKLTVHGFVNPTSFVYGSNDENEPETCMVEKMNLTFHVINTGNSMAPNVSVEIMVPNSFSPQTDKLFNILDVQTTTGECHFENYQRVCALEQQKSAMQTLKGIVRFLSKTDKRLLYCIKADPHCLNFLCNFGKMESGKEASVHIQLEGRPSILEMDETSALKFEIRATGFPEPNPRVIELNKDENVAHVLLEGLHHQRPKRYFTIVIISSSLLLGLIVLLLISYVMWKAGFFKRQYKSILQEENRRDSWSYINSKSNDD
T1 sequence (P05556 21-798): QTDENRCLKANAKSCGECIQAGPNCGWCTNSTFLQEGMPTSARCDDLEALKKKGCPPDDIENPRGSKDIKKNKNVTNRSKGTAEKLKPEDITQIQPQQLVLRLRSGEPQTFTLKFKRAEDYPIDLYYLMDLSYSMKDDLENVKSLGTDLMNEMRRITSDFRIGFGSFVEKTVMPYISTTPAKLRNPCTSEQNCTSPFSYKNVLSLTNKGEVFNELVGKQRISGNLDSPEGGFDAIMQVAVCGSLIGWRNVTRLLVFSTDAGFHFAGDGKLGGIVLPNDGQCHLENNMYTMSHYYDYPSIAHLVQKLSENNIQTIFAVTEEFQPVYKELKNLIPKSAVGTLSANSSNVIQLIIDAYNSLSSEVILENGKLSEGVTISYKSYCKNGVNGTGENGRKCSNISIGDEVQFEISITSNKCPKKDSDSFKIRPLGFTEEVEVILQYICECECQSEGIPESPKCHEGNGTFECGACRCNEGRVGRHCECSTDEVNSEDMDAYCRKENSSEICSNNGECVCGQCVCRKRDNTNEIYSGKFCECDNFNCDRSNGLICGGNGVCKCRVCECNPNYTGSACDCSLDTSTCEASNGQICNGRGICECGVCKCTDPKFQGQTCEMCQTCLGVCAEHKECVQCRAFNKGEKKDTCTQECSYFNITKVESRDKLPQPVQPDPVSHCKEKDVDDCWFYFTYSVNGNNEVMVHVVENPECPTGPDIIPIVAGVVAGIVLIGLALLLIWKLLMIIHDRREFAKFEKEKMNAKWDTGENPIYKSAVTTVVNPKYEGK
Put plainly: In vitro binding assay: Jurkat cells to solid phase-bound sVCAM-1. Type of series: cell-based. As for the experimental part: Assays conducted using sVCAM-1 as solid phase-bound antigen were carried out substantially identically to those using CS-1. The sVCAM-1 polypeptide used had the same amino acid residue sequence as the materials described in Lobb et al., Biochem. Biophys. Res. Commun., 178:1498-1504 (1991) and Cybulsky et al., Proc. Natl. Acad. Sci., USA, 88:7859-7863 (1991). Human embryonal kidney line 293 (ATCC CRL 1573) cells were co-transfected with a plasmid (pCDNAI;invitrogen) containing the sVCAM-1 DNA sequence and plasmid pSV2-neo [Southern et al., J. Mol. Appl. Gen., 1:327-341 ([…])]. Cells were selected in DMEM, 10 percent fetal bovine serum and 600 μg/ml Geneticin. sVCAM-1 was purified from supernatants using a column containing monoclonal antibody P3H12 (anti-human VCAM-1) coupled to Sepharose 4B. The sVCAM-1 was eluted using 0.1M glycine at pH 2.5 following 50 column washes with PBS, pH 7.2. The eluate was immediately neutralized and dialyzed against PBS for use.

Series [4] has as its system Jurkat cell adhesion to RA synovial sections. The note with it: 10-mer at 500 μg/ml; reported in Elices et al., J. Clin. Invest. 1994; cited from earlier work.

Positions of bridges follow the written chain, without caps; N, C: chain ends. Residues, ends and D or L forms follow the SMILES beside them. No end group written: not given here.

VLA-4, sequence (P13612 34-1032): as the sequence (P13612 34-1032) above
VLA-4, sequence (P05556 21-798): as the sequence (P05556 21-798) above

For `CC(C)C[C@@H]1NC(=O)[C@H](Cc2ccccc2)NC(=O)[C@@H](N)CSSC[C@@H](C(N)=O)NC(=O)[C@H](CO)NC(=O)[C@@H]2CCCN2C(=O)[C@H](Cc2ccccc2)NC(=O)[C@H](CC(=O)O)NC1=O` [SEQ ID NO:13, CFLDFPSC-NH2] (H-CFLDFPSC-NH2; disulfide 1-8), in series [1], the transendothelial lymphocyte migration entry is given as “reduces lymphocyte migration”. For the same compound, at VLA-4, the “Relative Potency” value is reported as 122.
Arg-Gly-Asp [Arg-Gly-Asp peptide]: the “recruitment of T lymphocytes to skin inflammatory sites” value in the series on contact hypersensitivity is reported as “also inhibitory”.
For “DELPQLVTLPHPNLHGPEILDVPST [CS-1 peptide, reference compound]”, the “loss of potency in serum-containing buffer” value in series [2] was “lost its potency in less than one hour”. Also, the “clearance from blood circulation” value in series [3] was “rapidly cleared from blood circulation by proteolytic degradation”.
Consider “GPEILDVPST [SEQ ID NO:6, standard 10-mer peptide GlyProGluIleLeuAspValProSerThr, set atone, reference compound]”, for which the “inhibition of binding between solid phase-bound sVCAM-1 and Jurkat cells (in words)” value in the series with VLA-4/sVCAM-1 is given as “no inhibition”. Besides, in series [4], the “inhibition of Jurkat cell adhesion to RA synovial sections” value is “can be inhibited”. In the series with VLA-4, the “Relative Potency” value came to 1. Moreover, the “Potency in inhibiting Jurkat cell binding to CS-1 relative to standard 10-mer of SEQ ID NO:6” value with VLA-4 (times/fold more potent than SEQ ID NO:6) is recorded as around 1.
